Experimental data published in patent EP0284935A1, “5-Substituted quinolone- and naphthyridone carboxylic acid derivatives” (BAYER AG, priority 1987, dated 1988).

Key:
Experiment in all cases: Agar dilution test, minimum inhibitory concentration
Assay type in all cases: cell-based
[1] = system: Morg. morg. 932; details: test strain Morg. morg. 932; Isosensitest-Agar (Oxoid), inoculum ca. 10^4 germs per inoculation point; read-out: Minimale Hemmkonzentrationen
[2] = system: Serratia 16040; details: test strain Serratia 16040; Isosensitest-Agar (Oxoid), inoculum ca. 10^4 germs per inoculation point; read-out: Minimale Hemmkonzentrationen
[3] = system: Providencia 12012; details: test strain Providencia 12012; Isosensitest-Agar (Oxoid), inoculum ca. 10^4 germs per inoculation point; read-out: Minimale Hemmkonzentrationen
[4] = system: Staph. 1756; details: test strain Staph. 1756; Isosensitest-Agar (Oxoid), inoculum ca. 10^4 germs per inoculation point; read-out: Minimale Hemmkonzentrationen
[5] = system: E.coli 455/7; details: Escherichia coli; test strain E.coli 455/7; Isosensitest-Agar (Oxoid), inoculum ca. 10^4 germs per inoculation point; read-out: Minimale Hemmkonzentrationen
[6] = system: Morg. morg. 11006; details: test strain Morg. morg. 11006; Isosensitest-Agar (Oxoid), inoculum ca. 10^4 germs per inoculation point; read-out: Minimale Hemmkonzentrationen
[7] = system: Providencia 12052; details: test strain Providencia 12052; Isosensitest-Agar (Oxoid), inoculum ca. 10^4 germs per inoculation point; read-out: Minimale Hemmkonzentrationen
[8] = system: E.coli A261; details: Escherichia coli; test strain E.coli A261; Isosensitest-Agar (Oxoid), inoculum ca. 10^4 germs per inoculation point; read-out: Minimale Hemmkonzentrationen
[9] = system: Pseudomonas Ellsworth; details: test strain Pseudomonas Ellsworth; Isosensitest-Agar (Oxoid), inoculum ca. 10^4 germs per inoculation point; read-out: Minimale Hemmkonzentrationen
[10] = system: Proteus vulg. 1017; details: test strain Proteus vulg. 1017; Isosensitest-Agar (Oxoid), inoculum ca. 10^4 germs per inoculation point; read-out: Minimale Hemmkonzentrationen
[11] = system: Pseudomonas Walter; details: test strain Pseudomonas Walter; Isosensitest-Agar (Oxoid), inoculum ca. 10^4 germs per inoculation point; read-out: Minimale Hemmkonzentrationen
[12] = system: Enteroc. 27101; details: test strain Enteroc. 27101; Isosensitest-Agar (Oxoid), inoculum ca. 10^4 germs per inoculation point; read-out: Minimale Hemmkonzentrationen
[13] = system: E.coli Neumann; details: Escherichia coli; test strain E.coli Neumann; Isosensitest-Agar (Oxoid), inoculum ca. 10^4 germs per inoculation point; read-out: Minimale Hemmkonzentrationen
[14] = system: Klebsiella 63; details: test strain Klebsiella 63; Isosensitest-Agar (Oxoid), inoculum ca. 10^4 germs per inoculation point; read-out: Minimale Hemmkonzentrationen
[15] = system: Proteus mir. 8223; details: test strain Proteus mir. 8223; Isosensitest-Agar (Oxoid), inoculum ca. 10^4 germs per inoculation point; read-out: Minimale Hemmkonzentrationen
[16] = system: Enteroc. 9790; details: test strain Enteroc. 9790; Isosensitest-Agar (Oxoid), inoculum ca. 10^4 germs per inoculation point; read-out: Minimale Hemmkonzentrationen
[17] = system: Klebsiella 8085; details: test strain Klebsiella 8085; Isosensitest-Agar (Oxoid), inoculum ca. 10^4 germs per inoculation point; read-out: Minimale Hemmkonzentrationen
[18] = system: Staph. 133; details: test strain Staph. 133; Isosensitest-Agar (Oxoid), inoculum ca. 10^4 germs per inoculation point; read-out: Minimale Hemmkonzentrationen
[19] = system: Staph. FK 422; details: test strain Staph. FK 422; Isosensitest-Agar (Oxoid), inoculum ca. 10^4 germs per inoculation point; read-out: Minimale Hemmkonzentrationen

Measured: MIC

CN1CCN(c2c(F)c(N)c3c(=O)c(C(=O)O)cn(C4CC4)c3c2F)CC1 [Beispiel 19, 5-Amino-1-cyclopropyl-6,8-difluor-1,4-dihydro-7-(4-methyl-1-piperanyl)-4-oxo-3-chinolincarbonsäure]
0.5 µg/mL: [11]
1 µg/mL: [5] | [7]
0.25 µg/mL: [8] | [12] | [15] | [16]
4 µg/mL: [2]
0.03 µg/mL: [1] | [13] | [14] | [17] | [19]
0.06 µg/mL: all other assays above
